Measured values reported in patent US20100184679A1, “USE OF A COMBINATION OF CART PEPTIDES AS A THERAPEUTIC AGENT” (priority 2007, published 2010).
Where no end group is shown, it is not given here.

What was measured:
HCMV strain AD169 = experiment: HCMV plaque formation assay in MRC-5 cells; format: cell-based; conditions: for inhibition of HCMV plaque formation as compared to the virus control experiment: 10 micrograms per ml, 7-10 days
Description: Ganciclovir was used as positive control.

[1] = system: hepatitis B virus (HBV) ayw strain; experiment: HBV assay in HepG2-2.2.15 cells (TaqMan PCR of secreted HBV DNA); format: cell-based; conditions: 10 micrograms per ml, six days, HBV DNA in supernatant
Human A549 cells = experiment: Apoptosis induction assay (Annexin-5); format: cell-based; conditions: 10 micrograms per ml, 24 hours
Method: Human A549 cells (carcinomic human alveolar basal epithelial cells) were utilized in the experiments employing the Annexin-5 apoptosis assay. […] Test peptides—10 micrograms per ml—were exposed for 24 hours to the A549 cells before they were analyzed for signs of apoptosis.

murine spleen cells = experiment: Th1/Th2 cytokine profiling assay (Ovalbumin-restimulated spleen cells, CBA Kit); format: cell-based, Balb/c mice; conditions: 10 micrograms per ml, Ovalbumin restimulation, 72 hours
Description: The Balb/c mice (originated in 1923, it is a popular strain and is used in many different research disciplines. Also classified as an inbred from the production of 20 or more successive brother-sister matings, the Balb/c mouse is albino and small in size) were immunized on Days 1, 15, and 29 with Ovalbumin (Ovalbumin is the main protein found in egg white, commonly used to stimulate an immunological reaction in test animals) in PBS (5 micrograms/injection). On day 50, spleens of the mice were harvested (3 weeks after last boost with Ovalbumin), Cells were cultured (2×10^5/well in triplicate) and incubated with culture medium or test peptides—10 micrograms per ml—for 30 min. Thereafter, additional Ovalbumin was added to the cells at 10 micrograms/ml for in vitro restimulation of the cells. 72 hours later, cell supernatants were harvested and assayed using the Becton Dickinson Mouse Th1/Th2 Cytokine CBA Kit. This kit can be used to measure Interleukin-2 (IL-2), Interleukin-4 (IL-4), Interleukin-5 (IL-5), Interferon-γ (IFN-γ), and Tumor Necrosis Factor-α (TNF-α) protein levels in a single sample. The kit performance has been optimized for analysis of physiologically relevant concentrations (pg/ml levels) of specific cytokine proteins in tissue culture supernatants and serum samples.

[2] = system: Primary Human endothelial cells (HUVEC); experiment: Endothelial cell migration assay; format: cell-based; conditions: 10 micrograms per ml, 22 hours
Method: Thereafter, designated concentration of testing peptides—10 micrograms per ml—was added in duplicate wells.

HUVEC = experiment: Endothelial tube formation assay; format: cell-based, human; conditions: 10 micrograms per ml, 20 hours
Description: Positive control was vehicle only.

HIV-1IIIB = experiment: HIV-1 antiviral assay in CEM-SS cells (MTS readout)

Molecule | inhibition of HBV replication as compared to the virus control infection [1] [%] | inhibition of HCMV plaque formation as compared to the virus control experiment (HCMV strain AD169) [%] | induction of apoptosis on human lung cells (Human A549 cells) | change of the production of IFN-gamma (murine spleen cells) | change of the production of IL-5 (murine spleen cells) | production of TNF-alpha, induced by (murine spleen cells) [%] | inhibition of the migration of human endothelial cells [2] [%] | inhibition of the tube formation of human endothelial cells (HUVEC) [%] | antiviral activity of positive control compounds (HIV-1) (HIV-1IIIB) | further results
Nc1nc(O)c2ncn(COC(CO)CO)c2n1 [Ganciclovir, reference compound] |  |  |  |  |  |  |  |  |  | antiviral activity of positive control compound (HCMV) (HCMV strain AD169; positive control): expected levels of antiviral activity
Val-Pro-Ile-Tyr-Glu-Lys-Lys-Tyr-Gly-Gln-Val-Pro-Met-Cys-Asp-Ala-Gly-Glu-Gln-Cys-Ala-Val-Arg-Lys-Gly-Ala-Arg-Ile-Gly-Lys-Leu-Cys-Asp-Cys-Pro-Arg-Gly-Thr-Ser-Cys-Asn-Ser-Phe-Leu-Leu-Lys-Cys-Leu-OH (VPIYEKKYGQVPMCDAGEQCAVRKGARIGKLCDCPRGTSCNSFLLKCL-OH; cysteine pairing not given here) [Peptide 2] | 45.0 | 6.6 | 17.8% | did not significantly change | did not significantly change | 27.5 | 22 | 12 |  | production of IL-2, decreased by (murine spleen cells): 61.5%; production of IL-4, decreased by (murine spleen cells): 100%
Tyr-Gly-Gln-Val-Pro-Met-Cys-Asp-Ala-Gly-Glu-Gln-Cys-Ala-Val-OH (YGQVPMCDAGEQCAV-OH; cysteine pairing not given here) [Peptide 1] | 33.6 | 0.7 | did not show any significant induction | did not significantly change | did not significantly change | 95.0 | 15 | 16 |  | production of IL-2, induced by (murine spleen cells): 147.7%; production of IL-4, induced by (murine spleen cells): 545.4%
CC(C)(C)NC(=O)[C@@H]1CN(Cc2cccnc2)CCN1C[C@@H](O)C[C@@H](Cc1ccccc1)C(=O)N[C@H]1c2ccccc2C[C@H]1O [indinavir] |  |  |  |  |  |  |  |  | expected levels of antiviral activity | 
Cc1cn([C@H]2C[C@H](N=[N+]=[N-])[C@@H](CO)O2)c(=O)[nH]c1=O [AZT] |  |  |  |  |  |  |  |  | expected levels of antiviral activity | 
